Data published in paper PMC7504417 (International Journal of Molecular Sciences, 2020).
Where a name gives a salt, the structure may show the parent alone. Read-outs that look alike come from different tables or passages of the source.

Assays:
[1] = target: reduced glutathione (Glut RED, ECG); experiment: UV spectrophotometry binding to reduced glutathione; conditions: UV spectrophotometry at 200 nm, pH 7.00 phosphate-buffered saline, ca. 24 °C
[2] = target: oxidized glutathione (Glut OX, ECG-ECG); experiment: UV spectrophotometry binding to oxidized glutathione; conditions: UV spectrophotometry; single value, or first (higher-affinity) value of a cell a/b; read-out: Kd (µM) Glut OX ECG-ECG
[3] = target: T1, beta 2 adrenergic receptor peptide B2AR 183–185 NCY (Homo sapiens, UniProt P07550); experiment: biochemical; type: binding; conditions: Figure 4
T1 construct: B2AR 183–185 NCY; purchased RS Synthesis (Louisville, KY, USA); host or cells: chemical synthesis

[4] = target: T2, histamine 1 receptor peptide H1HR 77–87 GAVVMPMNILYL (Homo sapiens, UniProt P35367); experiment: biochemical; type: binding; conditions: UV spectrophotometry; single value, or first (higher-affinity) value of a cell a/b; read-out: Kd (µM) H1HR 77–87 […]
T2 construct: H1HR 77–87 GAVVMPMNILYL; purchased RS Synthesis (Louisville, KY, USA); host or cells: chemical synthesis

[5] = target: T3, histamine 1 receptor peptide H1HR 105–108 SMDY (Homo sapiens, UniProt P35367); experiment: biochemical; type: binding; conditions: UV spectrophotometry; single value, or first (higher-affinity) value of a cell a/b; read-out: Kd (µM) H1HR 105–108 SMDY
T3 construct: H1HR 105–108 SMDY; purchased RS Synthesis (Louisville, KY, USA); host or cells: chemical synthesis

[6] = target: T4, histamine 1 receptor peptide HIHR 177–183 RDKCETD (Homo sapiens, UniProt P35367, E177R); experiment: biochemical; type: binding; conditions: UV spectrophotometry; read-out: Kd (µM) HIHR 177–183 RDKCETD
T4 construct: HIHR 177–183 RDKCETD; purchased RS Synthesis (Louisville, KY, USA); host or cells: chemical synthesis

[7] = target: Opioid Receptor (mu opioid receptor peptides) (Homo sapiens, UniProt P35372); experiment: Overall pattern of binding: Opioid Receptor peptides
Sequence of Opioid Receptor (mu opioid receptor peptides) (P35372 with tags, fused parts or gaps): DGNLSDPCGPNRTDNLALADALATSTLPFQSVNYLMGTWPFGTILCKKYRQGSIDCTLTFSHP
Description: (§1) The method used was ultraviolet spectrophotometry, which is a sensitive way to test for the binding of pairs of molecules. Binding data obtained using this method have previously been validated by direct comparison to results of nuclear magnetic resonance, circular dichroism, capillary electrophoresis, and other physicochemical methods (e.g., [51, 87, 88, 89, 90]).
(§2) For each individual test, the concentration of the stock solution was calculated and then diluted to a 10 µM solution.
(§3) Thus, the final concentration of receptor peptide in each well varied from 0.5 mM to 0.05 pM while the other compound was held fixed at 5 µM.
The method of calculating binding constants was to measure the absorbance (minus the absorbance of the buffer) of 100 µL of each compound by itself diluted by 100 µL of buffer at a given wavelength (in this case at 200 nm) at the range of concentrations utilized in the experiments. The average of the resulting values is calculated. (If the experiments are run properly, there is very little variance—a couple of percent. If there was more variance than that, the experiment was re-run.) An “expected” value is calculated following Beer’s law, by adding the absorbances of each pair of compounds (peptide plus small molecule). The actual chemical combinations of these molecules was then run under identical conditions.
The difference between the “expected” and actual values was determined at each concentration of the varied compound. This difference was then plotted against the concentration of the varied compound. […] The binding constant was approximated by using the inflection point of the binding curve (i.e., the point at which the dissociation and association of the two molecules was equal). […] All data were analyzed using Microsoft Excel.
Because the resulting absorbances are the differences between the independently measured absorbances, it is not possible to calculate error bars or to perform statistics on the resulting values.

[8] = target: Adrenergic Receptor (beta 2 adrenergic receptor peptides) (Homo sapiens, UniProt P07550); experiment: Overall pattern of binding: Adrenergic Receptor peptides
Sequence of Adrenergic Receptor (beta 2 adrenergic receptor peptides) (P07550 with tags, fused parts or gaps): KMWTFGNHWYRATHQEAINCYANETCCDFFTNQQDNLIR
Description: as §1, §2, §3
(§4) The method of calculating binding constants was to measure the absorbance (minus the absorbance of the buffer) of 100 µL of each compound by itself diluted by 100 µL of buffer at a given wavelength (in this case at 200 nm) at the range of concentrations utilized in the experiments. The average of the resulting values is calculated. (If the experiments are run properly, there is very little variance—a couple of percent. If there was more variance than that, the experiment was re-run.) An “expected” value is calculated following Beer’s law, by adding the absorbances of each pair of compounds (peptide plus small molecule). […]
(§5) The difference between the “expected” and actual values was determined at each concentration of the varied compound. […]

[9] = target: Dopamine Receptor (dopamine 1 receptor peptides) (Homo sapiens, UniProt P21728); experiment: Overall pattern of binding: Dopamine Receptor peptides
Sequence of Dopamine Receptor (dopamine 1 receptor peptides) (P21728 with tags, fused parts or gaps): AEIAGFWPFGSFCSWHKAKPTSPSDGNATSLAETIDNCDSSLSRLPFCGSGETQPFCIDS
Description: as §1, §2, §3, §4, §5

[10] = target: Histamine Receptor (histamine 1 receptor peptides) (Homo sapiens, UniProt P35367); experiment: biochemical; type: binding; conditions: first symbol of the cell
Sequence of Histamine Receptor (histamine 1 receptor peptides) (P35367 with tags, fused parts or gaps): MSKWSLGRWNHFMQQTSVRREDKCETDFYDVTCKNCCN

receptor peptides tested = experiment: UV spectrophotometry binding to all peptides tested (summary)
Glutathione = experiment: Overall pattern of binding: Glutathione (reduced and oxidized)
[11] = target: T5, beta 2 adrenergic receptor peptide B2AR 97–103 KMWTFGN (Homo sapiens, UniProt P07550); experiment: biochemical; type: binding
T5 construct: B2AR 97–103 KMWTFGN; purchased RS Synthesis (Louisville, KY, USA); host or cells: chemical synthesis

[12] = target: T6, beta 2 adrenergic receptor peptide B2AR 105–108 WCEF (Homo sapiens, UniProt P07550); experiment: biochemical; type: binding
T6 construct: B2AR 105–108 WCEF; purchased RS Synthesis (Louisville, KY, USA); host or cells: chemical synthesis

[13] = intrathecal delivery; cited from earlier work
[14] = target: dopamine 1 receptor peptide D1DR 96–98 FCN (Homo sapiens, UniProt P21728); experiment: biochemical
[15] = system: glutathione S-transferase A-5 and CYP3A2 expression in rat liver; set-up: method as in PMID 20487198; conditions: exposure to opioid; cited from earlier work

SMILES	Kd [1] [µM]	Kd [2] [µM]	binding to adrenergic receptor peptide 183–185 (NCY), in words [3]	Kd [4] [µM]	Kd [5] [µM]	Kd [6] [µM]	Kd ([7]; first symbol of the cell) [µM]	Kd [10] [µM]	observable affinity of the peptides tested, in words (receptor peptides tested)	other results
CC(=O)OCC[N+](C)(C)C [Acetylcholine, acetylcholine]	> 1000	> 1000	No binding was observed	> 1000	> 1000	> 1000	> 60	> 60	none of the peptides tested had observable affinity	Kd ([8]; first symbol of the cell): > 60 µM; Kd ([9]; first symbol of the cell): > 60 µM
OC[C@H]1OC(O)[C@H](O)[C@@H](O)[C@@H]1O (stereo partly drawn) [Glucose, glucose]	> 1000	> 1000	No binding was observed			> 1000		> 60	none of the peptides tested had observable affinity	binding to either reduced or oxidized glutathione, in words (Glutathione): do not bind appreciably; Kd [7]: > 60 µM; Kd [8]: > 60 µM; Kd [9]: > 60 µM
NCCc1c[nH]c2ccc(O)cc12 [Serotonin, serotonin]	70	> 1000		50	120	60	> 60			Kd [11]: 430 µM; Kd [12]: 45 µM
CN1CC[C@]23c4c5ccc(O)c4O[C@H]2[C@@H](O)C=C[C@H]3[C@H]1C5 [Morphine, morphine sulfate]										transient cerebrospinal fluid concentrations [13]: approximately 25 µM; Kd [14]: 25 µM
COc1ccc2c3c1O[C@H]1C(=O)CC[C@@]4(O)[C@@H](C2)N(C)CC[C@]314 [oxycodone]										expression in rat liver of glutathione S-transferase A-5 [15]: greater than six-fold increase; expression of the cytochrome enzyme CYP3A2 [15]: decreased seven-fold
